Measured values reported in ChEMBL document CHEMBL3585344, “Thiazole-based aminopyrimidines and N-phenylpyrazolines as potent antimicrobial agents: synthesis and biological evaluation” (2014).
≈ marks a conversion by molar mass, not a printed value.

Legend:
Escherichia coli [1] = assay: Antibacterial activity against Escherichia coli ATCC 35210 after 24 hrs by microdilution method; assay type: functional; conditions: ATCC 35210, 24 h
Escherichia coli [2] = assay: Bactericidal activity against Escherichia coli ATCC 35210 after 72 hrs by microdilution method; assay type: functional
Talaromyces funiculosus [3] = assay: Fungicidal activity against Penicillium funiculosum ATCC 36839 after 72 hrs by microdilution method; assay type: functional
Trichoderma viride [4] = assay: Fungicidal activity against Trichoderma viride IAM 5061 after 72 hrs by microdilution method; assay type: functional
Micrococcus flavus [5] = assay: Antibacterial activity against Micrococcus flavus ATCC 10240 after 24 hrs by microdilution method; assay type: functional; conditions: ATCC 10240, 24 h
Bacillus cereus [6] = assay: Bactericidal activity against Bacillus cereus clinical isolate after 72 hrs by microdilution method; assay type: functional
Micrococcus flavus [7] = assay: Bactericidal activity against Micrococcus flavus ATCC 10240 after 72 hrs by microdilution method; assay type: functional
Trichoderma viride [8] = assay: Antifungal activity against Trichoderma viride IAM 5061 after 72 hrs by microdilution method; assay type: functional; conditions: IAM 5061, 72 h
Bacillus cereus [9] = assay: Antibacterial activity against Bacillus cereus clinical isolate after 24 hrs by microdilution method; assay type: functional
Aspergillus ochraceus [10] = assay: Antifungal activity against Aspergillus ochraceus ATCC 12066 after 72 hrs by microdilution method; assay type: functional; conditions: ATCC 12066, 72 h
Pseudomonas aeruginosa [11] = assay: Bactericidal activity against Pseudomonas aeruginosa ATCC 27853 after 72 hrs by microdilution method; assay type: functional
Talaromyces funiculosus [12] = assay: Antifungal activity against Penicillium funiculosum ATCC 36839 after 72 hrs by microdilution method; assay type: functional; conditions: ATCC 36839, 72 h
Pseudomonas aeruginosa [13] = assay: Antibacterial activity against Pseudomonas aeruginosa ATCC 27853 after 24 hrs by microdilution method; assay type: functional; conditions: ATCC 27853, 24 h
Aspergillus niger [14] = assay: Antifungal activity against Aspergillus niger ATCC 6275 after 72 hrs by microdilution method; assay type: functional; conditions: ATCC 6275, 72 h
Aspergillus fumigatus [15] = assay: Fungicidal activity against Aspergillus fumigatus isolated from human after 72 hrs by microdilution method; assay type: functional
Aspergillus versicolor [16] = assay: Antifungal activity against Aspergillus versicolor ATCC 11730 after 72 hrs by microdilution method; assay type: functional; conditions: ATCC 11730, 72 h
Aspergillus ochraceus [17] = assay: Fungicidal activity against Aspergillus ochraceus ATCC 12066 after 72 hrs by microdilution method; assay type: functional
Listeria monocytogenes [18] = assay: Bactericidal activity against Listeria monocytogenes NCTC 7973 after 72 hrs by microdilution method; assay type: functional
Candida albicans [19] = assay: Antifungal activity against Candida albicans ATCC 10231 isolated from human after 72 hrs by microdilution method; assay type: functional; conditions: ATCC 10231, 72 h
Salmonella typhimurium [20] = assay: Bactericidal activity against Salmonella typhimurium ATCC 13311 after 72 hrs by microdilution method; assay type: functional, Salmonella enterica subsp. enterica serovar Typhimurium
Aspergillus versicolor [21] = assay: Fungicidal activity against Aspergillus versicolor ATCC 11730 after 72 hrs by microdilution method; assay type: functional
Salmonella typhimurium [22] = assay: Antibacterial activity against Salmonella typhimurium ATCC 13311 after 24 hrs by microdilution method; assay type: functional, Salmonella enterica subsp. enterica serovar Typhimurium; conditions: Salmonella enterica, ATCC 13311, 24 h
Penicillium ochrochloron [23] = assay: Antifungal activity against Penicillium ochrochloron ATCC 9112 after 72 hrs by microdilution method; assay type: functional; conditions: ATCC 9112, 72 h
Aspergillus fumigatus [24] = assay: Antifungal activity against Aspergillus fumigatus isolated from human after 72 hrs by microdilution method; assay type: functional
Staphylococcus aureus [25] = assay: Antibacterial activity against Staphylococcus aureus ATCC 6538 after 24 hrs by microdilution method; assay type: functional; conditions: ATCC 6538, 24 h
Enterobacter cloacae [26] = assay: Bactericidal activity against Enterobacter cloacae ATCC 35030 isolated from human after 72 hrs by microdilution method; assay type: functional
Penicillium ochrochloron [27] = assay: Fungicidal activity against Penicillium ochrochloron ATCC 9112 after 72 hrs by microdilution method; assay type: functional
Aspergillus niger [28] = assay: Fungicidal activity against Aspergillus niger ATCC 6275 after 72 hrs by microdilution method; assay type: functional
Listeria monocytogenes [29] = assay: Antibacterial activity against Listeria monocytogenes NCTC 7973 after 24 hrs by microdilution method; assay type: functional; conditions: NCTC 7973, 24 h
Staphylococcus aureus [30] = assay: Bactericidal activity against Staphylococcus aureus ATCC 6538 after 72 hrs by microdilution method; assay type: functional
Enterobacter cloacae [31] = assay: Antibacterial activity against Enterobacter cloacae ATCC 35030 isolated from human after 24 hrs by microdilution method; assay type: functional; conditions: ATCC 35030, 24 h
Candida albicans [32] = assay: Fungicidal activity against Candida albicans ATCC 10231 isolated from human after 72 hrs by microdilution method; assay type: functional

Structure (SMILES) | MIC (Escherichia coli [1]) [µM] | MBC99.5 (Escherichia coli [2]) [×10⁻² umol/ml] | MFC99.5 (Talaromyces funiculosus [3]) [×10⁻² umol/ml] | MFC99.5 (Trichoderma viride [4]) [×10⁻² umol/ml] | MIC (Micrococcus flavus [5]) [µM] | MBC99.5 (Bacillus cereus [6]) [×10⁻² umol/ml] | MBC99.5 (Micrococcus flavus [7]) [×10⁻² umol/ml] | MIC (Trichoderma viride [8]) [µM] | MIC (Bacillus cereus [9]) [µM] | MIC (Aspergillus ochraceus [10]) [µM] | MBC99.5 (Pseudomonas aeruginosa [11]) [×10⁻² umol/ml] | MIC (Talaromyces funiculosus [12]) [µM] | MIC (Pseudomonas aeruginosa [13]) [µM] | MIC (Aspergillus niger [14]) [µM] | MFC99.5 (Aspergillus fumigatus [15]) [×10⁻² umol/ml] | MIC (Aspergillus versicolor [16]) [µM] | MFC99.5 (Aspergillus ochraceus [17]) [×10⁻² umol/ml] | MBC99.5 (Listeria monocytogenes [18]) [×10⁻² umol/ml] | MIC (Candida albicans [19]) [µM] | MBC99.5 (Salmonella typhimurium [20]) [×10⁻² umol/ml] | also measured
Cc1nc(-c2ccccc2)sc1C1=NN(c2ccccc2)C(c2ccccc2)C1 (centres undefined) | 101 (≈ 39.9 µg/mL) | 17.7 | 32.2 | 25.3 | 126 (≈ 49.8 µg/mL) | 30.4 | 20.2 | 126 (≈ 49.8 µg/mL) | 152 (≈ 60.1 µg/mL) | 126 (≈ 49.8 µg/mL) | 25.3 | 253 (≈ 100 µg/mL) | 152 (≈ 60.1 µg/mL) | 253 (≈ 100 µg/mL) | 15.2 | 126 (≈ 49.8 µg/mL) | 20.2 | 10.1 | 253 (≈ 100 µg/mL) | 25.3 | MFC99.5 (Aspergillus versicolor [21]): 15.2 ×10⁻² umol/ml; MIC (Salmonella typhimurium [22]): 202 µM (≈ 79.9 µg/mL); MIC (Penicillium ochrochloron [23]): 253 µM (≈ 100 µg/mL); MIC (Aspergillus fumigatus [24]): 126 µM (≈ 49.8 µg/mL); MIC (Staphylococcus aureus [25]): 126 µM (≈ 49.8 µg/mL); MBC99.5 (Enterobacter cloacae [26]): 17.7 ×10⁻² umol/ml; MFC99.5 (Penicillium ochrochloron [27]): 32.2 ×10⁻² umol/ml; MFC99.5 (Aspergillus niger [28]): 32.2 ×10⁻² umol/ml; MIC (Listeria monocytogenes [29]): 76 µM (≈ 30.1 µg/mL); MBC99.5 (Staphylococcus aureus [30]): 20.2 ×10⁻² umol/ml; MIC (Enterobacter cloacae [31]): 126 µM (≈ 49.8 µg/mL); MFC99.5 (Candida albicans [32]): 30.4 ×10⁻² umol/ml
CNc1nc(C)c(C2=NN(c3ccccc3)C(c3ccc(OC)cc3)C2)s1 (centres undefined) | 185 (≈ 70 µg/mL) | 21.1 | 37 | 13.2 | 106 (≈ 40.1 µg/mL) | 26.4 | 15.8 | 132 (≈ 50 µg/mL) | 158 (≈ 59.8 µg/mL) | 132 (≈ 50 µg/mL) | 26.4 | 264 (≈ 99.9 µg/mL) | 158 (≈ 59.8 µg/mL) | 132 (≈ 50 µg/mL) | 37 | 132 (≈ 50 µg/mL) | 13.2 | 10.6 | 264 (≈ 99.9 µg/mL) | 26.4 | MFC99.5 (Aspergillus versicolor [21]): 21.1 ×10⁻² umol/ml; MIC (Salmonella typhimurium [22]): 185 µM (≈ 70 µg/mL); MIC (Penicillium ochrochloron [23]): 264 µM (≈ 99.9 µg/mL); MIC (Aspergillus fumigatus [24]): 264 µM (≈ 99.9 µg/mL); MIC (Staphylococcus aureus [25]): 106 µM (≈ 40.1 µg/mL); MBC99.5 (Enterobacter cloacae [26]): 18.5 ×10⁻² umol/ml; MFC99.5 (Penicillium ochrochloron [27]): 37 ×10⁻² umol/ml; MFC99.5 (Aspergillus niger [28]): 26.4 ×10⁻² umol/ml; MIC (Listeria monocytogenes [29]): 53 µM (≈ 20.1 µg/mL); MBC99.5 (Staphylococcus aureus [30]): 15.8 ×10⁻² umol/ml; MIC (Enterobacter cloacae [31]): 132 µM (≈ 50 µg/mL); MFC99.5 (Candida albicans [32]): 37 ×10⁻² umol/ml
